Data: patent US4515941A, “23-Demycinosyldesmycosin derivatives” (Toyo Jozo Kabushiki Kaisha, priority 1982, dated 1985)
≈ marks a conversion by molar mass, not a printed value. Like-named read-outs stand apart in the source and are kept apart here.

What was measured:
Format in all cases: cell-based
[1] = system: Streptococcus agalactiae 1020; experiment: MIC, Streptococcus agalactiae 1020
Proteus vulgaris OX19 = experiment: MIC, Proteus vulgaris OX19
[2] = system: Bacillus subtilis ATC 6633; experiment: MIC, Bacillus subtilis ATC 6633
[3] = system: Klebsiella pneumoniae ATCC 10031; experiment: MIC, Klebsiella pneumoniae ATCC 10031
[4] = system: Staphylococcus epidermis sp-al-1; experiment: MIC, Staphylococcus epidermis sp-al-1
[5] = system: Corynebacterium diptheriae P.Y.8; experiment: MIC, Corynebacterium diptheriae P.Y.8
Shigella sonnei E33 = experiment: MIC, Shigella sonnei E33
[6] = system: Staphylococcus aureus ATCC 6538P; experiment: MIC, Staphylococcus aureus ATCC 6538P; settings: ATCC6538P
Sarcina lutea ATCC 9341 = experiment: MIC, Sarcina lutea ATCC 9341; settings: Micrococcus luteus, ATCC9341
[7] = system: Staphylococcus aureus 0127; experiment: MIC, Staphylococcus aureus 0127 (macrolide resistant); settings: Staphylococcus aureus 0127; macrolide resistant bacteria A group; read-out: MIC
Text: (§1) *macrolide resistant bacteria A group (clinical isolates of erythromycin,
(§2) oleandomycin and 16membered macrolide antibiotic resistant strains.)

[8] = system: Escherichia coli NIHJ-JC2; experiment: MIC, Escherichia coli NIHJ-JC2; settings: NIHJJC2
[9] = system: Staphylococcus aureus MS353; experiment: MIC, Staphylococcus aureus MS353
[10] = system: Streptococcus faecalis 1501; experiment: MIC, Streptococcus faecalis 1501
Salmonella typhosa H901 = experiment: MIC, Salmonella typhosa H901; settings: Salmonella enterica, TYPHOSA
[11] = system: Staphylococcus aureus MS353 A0; experiment: MIC, Staphylococcus aureus MS353 A0 (macrolide resistant); settings: MS353A0, macrolide resistant bacteria A group
Text: as §1, §2

[12] = system: Pseudomonas aeruginosa IAM 1095; experiment: MIC, Pseudomonas aeruginosa IAM 1095; settings: IAM1095
[13] = system: Streptococcus pyogenes N.Y.5; experiment: MIC, Streptococcus pyogenes N.Y.5
[14] = system: Streptococcus pyogenes 1022; experiment: MIC, Streptococcus pyogenes 1022 (macrolide resistant); settings: macrolide resistant bacteria A group
Text: as §1, §2

[15] = system: Salmonella enteritidis Gaertner; experiment: MIC, Salmonella enteritidis Gaertner; settings: Salmonella enterica, ENTERITIDIS
Serratia marcescens = experiment: MIC, Serratia marcescens
[16] = system: Shigella flexineri type 3a; experiment: MIC, Shigella flexineri type 3a; settings: TYPE3A
[17] = system: Staphylococcus aureus MS353 C36; experiment: MIC, Staphylococcus aureus MS353 C36; settings: MS353C36
[18] = system: Micrococcus flavus ATCC 10240; experiment: MIC, Micrococcus flavus ATCC 10240; settings: Micrococcus flavus, ATCC10240
[19] = Streptococcus agalactiae 1020, read-out: MIC
[20] = Proteus vulgaris OX19, read-out: MIC
[21] = ATC6633, Bacillus subtilis ATC 6633, read-out: MIC
[22] = ATCC10031, Klebsiella pneumoniae ATCC 10031, read-out: MIC
[23] = SPAL1, Staphylococcus epidermis sp-al-1, read-out: MIC
[24] = Corynebacterium diptheriae P.Y.8, read-out: MIC
[25] = Staphylococcus aureus MS353, read-out: MIC
[26] = Enterococcus faecalis, Streptococcus faecalis 1501, read-out: MIC
[27] = Pseudomonas aeruginosa IAM 1095, read-out: MIC
[28] = Streptococcus pyogenes 1022, read-out: MIC

SMILES: CCC1OC(=O)CC(O)C(C)C(OC2OC(C)C(O)C(N(C)C)C2O)C(CC=O)CC(C)C(=O)C=CC(C)=CC1COCc1ccccc1 (centres unmarked) [OCH 2 C6 H5, 23-O-benzyl-23-demycinosyldesmycosin]
- MIC [1, 19]: ≤ 0.05 µg/mL
- MIC (Proteus vulgaris OX19; [20]): 3.1 µg/mL (≈ 4.51 µM)
- MIC [2, 21]: ≤ 0.05 µg/mL
- MIC [3, 22]: 6.3 µg/mL (≈ 9.16 µM)
- MIC [4, 23]: ≤ 0.05 µg/mL
- MIC [5, 24]: ≤ 0.05 µg/mL
- MIC (Shigella sonnei E33): 25 µg/mL (≈ 36.3 µM)
- MIC ([6]; read-out: MIC): ≤ 0.05 µg/mL
- MIC (Sarcina lutea ATCC 9341): ≤ 0.05 µg/mL
- MIC [7]: 100 µg/mL (≈ 145 µM)
- MIC [8]: 25 µg/mL (≈ 36.3 µM)
- MIC [9, 25]: ≤ 0.05 µg/mL
- MIC [10, 26]: 0.05 µg/mL (≈ 0.0727 µM)
- MIC (Salmonella typhosa H901): 100 µg/mL (≈ 145 µM)
- MIC [11]: 50 µg/mL (≈ 72.7 µM)
- MIC [12, 27]: 50 µg/mL (≈ 72.7 µM)
- MIC ([13]; read-out: MIC): ≤ 0.05 µg/mL
- MIC [14, 28]: 3.1 µg/mL (≈ 4.51 µM)

SMILES: CCC1OC(=O)CC(O)C(C)C(OC2OC(C)C(O)C(N(C)C)C2O)C(CC=O)CC(C)C(=O)C=CC(C)=CC1CSCCc1ccccc1 (centres unmarked) [S(CH2)2 C6 H5, 23-(2-phenylethyl)thio-23-demycinosyl-23-deoxydesmycosin]
- MIC [1, 19]: ≤ 0.05 µg/mL
- MIC (Proteus vulgaris OX19; [20]): 12.5 µg/mL (≈ 17.4 µM)
- MIC [2, 21]: 0.1 µg/mL (≈ 0.139 µM)
- MIC [3, 22]: 3.1 µg/mL (≈ 4.32 µM)
- MIC [4, 23]: ≤ 0.05 µg/mL
- MIC (Shigella sonnei E33): 25 µg/mL (≈ 34.8 µM)
- MIC ([6]; read-out: MIC): 0.1 µg/mL (≈ 0.139 µM)
- MIC (Sarcina lutea ATCC 9341): ≤ 0.05 µg/mL
- MIC [8]: 50 µg/mL (≈ 69.6 µM)
- MIC [9, 25]: 0.1 µg/mL (≈ 0.139 µM)
- MIC [10, 26]: 0.1 µg/mL (≈ 0.139 µM)
- MIC (Salmonella typhosa H901): > 100 µg/mL
- MIC [11]: 50 µg/mL (≈ 69.6 µM)
- MIC [12, 27]: > 100 µg/mL
- MIC ([13]; read-out: MIC): ≤ 0.05 µg/mL
- MIC ([14]; Streptococcus pyogenes, 1022, Streptococcus pyogenes 1022): 25 µg/mL (≈ 34.8 µM)

SMILES: CCC1OC(=O)CC(O)C(C)C(OC2OC(C)C(O)C(N(C)C)C2O)C(CC=O)CC(C)C(=O)C=CC(C)=CC1CSc1ccccc1 (centres unmarked) [SC6 H5]
- MIC [1, 19]: ≤ 0.05 µg/mL
- MIC (Proteus vulgaris OX19; [20]): 12.5 µg/mL (≈ 18.1 µM)
- MIC [2, 21]: 0.1 µg/mL (≈ 0.145 µM)
- MIC [3, 22]: 1.6 µg/mL (≈ 2.32 µM)
- MIC [4, 23]: ≤ 0.05 µg/mL
- MIC [5, 24]: ≤ 0.05 µg/mL
- MIC (Shigella sonnei E33): 50 µg/mL (≈ 72.5 µM)
- MIC ([6]; read-out: MIC): 0.1 µg/mL (≈ 0.145 µM)
- MIC (Sarcina lutea ATCC 9341): ≤ 0.05 µg/mL
- MIC [8]: 50 µg/mL (≈ 72.5 µM)
- MIC [9, 25]: 0.1 µg/mL (≈ 0.145 µM)
- MIC [10, 26]: ≤ 0.05 µg/mL
- MIC (Salmonella typhosa H901): 50 µg/mL (≈ 72.5 µM)
- MIC [11]: 25 µg/mL (≈ 36.2 µM)
- MIC [12, 27]: 100 µg/mL (≈ 145 µM)
- MIC ([13]; read-out: MIC): ≤ 0.05 µg/mL
- MIC [14, 28]: 25 µg/mL (≈ 36.2 µM)

SMILES: CCC1OC(=O)CC(O)C(C)C(OC2OC(C)C(O)C(N(C)C)C2O)C(CC=O)CC(C)C(=O)C=CC(C)=CC1CSCc1ccccc1 (centres unmarked) [SCH2 C6 H5, 23-benzylthio-23-demycinosyl-23-deoxydesmycosin]
- MIC [1, 19]: ≤ 0.05 µg/mL
- MIC (Proteus vulgaris OX19; [20]): 6.3 µg/mL (≈ 8.95 µM)
- MIC [2, 21]: 0.1 µg/mL (≈ 0.142 µM)
- MIC [3, 22]: 1.6 µg/mL (≈ 2.27 µM)
- MIC [4, 23]: ≤ 0.05 µg/mL
- MIC [5, 24]: ≤ 0.05 µg/mL
- MIC (Shigella sonnei E33): 25 µg/mL (≈ 35.5 µM)
- MIC ([6]; read-out: MIC): ≤ 0.05 µg/mL
- MIC (Sarcina lutea ATCC 9341): ≤ 0.05 µg/mL
- MIC [8]: 50 µg/mL (≈ 71 µM)
- MIC [9, 25]: ≤ 0.05 µg/mL
- MIC [10, 26]: ≤ 0.05 µg/mL
- MIC (Salmonella typhosa H901): 50 µg/mL (≈ 71 µM)
- MIC [11]: 50 µg/mL (≈ 71 µM)
- MIC [12, 27]: 100 µg/mL (≈ 142 µM)
- MIC ([13]; read-out: MIC): ≤ 0.05 µg/mL

SMILES: CC[C@H]1OC(=O)C[C@@H](O)[C@H](C)[C@@H](O[C@@H]2O[C@H](C)[C@@H](O[C@H]3C[C@@](C)(O)[C@@H](O)[C@H](C)O3)[C@H](N(C)C)[C@H]2O)[C@@H](CC=O)C[C@@H](C)C(=O)/C=C/C(C)=C/[C@@H]1CO[C@@H]1O[C@H](C)[C@@H](O)[C@@H](OC)[C@H]1OC [TS, tylosin, reference compound]
- MIC ([1]; Streptococcus agalactiae 1020): 0.4 µg/mL (≈ 0.437 µM)
- MIC ([1]; Streptococcus agalactiae, 1020, Streptococcus agalactiae 1020): 0.2 µg/mL (≈ 0.218 µM)
- MIC (Proteus vulgaris OX19; Proteus vulgaris, OX19, Proteus vulgaris OX19): > 100 µg/mL
- MIC [15]: > 100 µg/mL
- MIC ([2]; Bacillus subtilis, ATC6633, Bacillus subtilis ATC 6633): 0.2 µg/mL (≈ 0.218 µM)
- MIC ([3]; Klebsiella pneumoniae ATCC 10031): 100 µg/mL (≈ 109 µM)
- MIC ([3]; Klebsiella pneumoniae, ATCC10031, Klebsiella pneumoniae ATCC 10031): 50 µg/mL (≈ 54.6 µM)
- MIC ([4]; Staphylococcus, SPAL1, Staphylococcus epidermis sp-al-1): 0.4 µg/mL (≈ 0.437 µM)
- MIC ([5]; Corynebacterium, P.Y.8): ≤ 0.05 µg/mL
- MIC (Shigella sonnei E33): > 100 µg/mL
- MIC (Serratia marcescens): > 100 µg/mL
- MIC ([6]; Staphylococcus aureus): 0.8 µg/mL (≈ 0.873 µM)
- MIC (Sarcina lutea ATCC 9341): ≤ 0.05 µg/mL
- MIC [16]: 50 µg/mL (≈ 54.6 µM)
- MIC ([9]; Staphylococcus aureus, MS353, Staphylococcus aureus MS353): 0.8 µg/mL (≈ 0.873 µM)
- MIC [17]: 0.4 µg/mL (≈ 0.437 µM)
- MIC ([10]; Enterococcus faecalis, 1501, Streptococcus faecalis 1501): 0.8 µg/mL (≈ 0.873 µM)
- MIC ([10]; Streptococcus faecalis 1501): 1.6 µg/mL (≈ 1.75 µM)
- MIC (Salmonella typhosa H901): > 100 µg/mL
- MIC [18]: ≤ 0.05 µg/mL
- MIC ([12]; Pseudomonas aeruginosa): > 100 µg/mL
- MIC [13]: 0.1 µg/mL (≈ 0.109 µM)
